Results on 12 molecules are retold here after PubChem BioAssay (NCI).

Some test systems named below: SK-MEL-5 melanoma; M14 melanoma; K-562 leukemia; CAKI-1 renal; NCI-H226 lung; RPMI-8226 leukemia; MOLT-4 leukemia; A549 NSCLC; TK-10 renal; HCT-15 colon.
Common to all, as to assay: NCI anticancer screen, dose series, 48 h

Structures are written as SMILES.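 All cell lines were grown in 96-well plates and treated with compound for 48 hours. The concentration for 50% growth inhibition is given as GI50. TGI denotes the concentration required for complete inhibition of growth.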

On to `CC(=O)OCC(=O)O[C@@H]1[C@H]2[C@@H](OC(=O)c3ccccc3)[C@@H](C)C[C@]2(O)[C@H](OC(C)=O)[C@@]2(C)C[C@]1(OC(C)=O)C[C@H]1C(=O)C(C)(C)[C@@H](OC(C)=O)[C@@H]12`, for which the TGI in the assay with SK-MEL-5 melanoma, with M14 melanoma, in the assay on K-562 leukemia, with CAKI-1 renal, in the assay with NCI-H226 lung and in the assay with RPMI-8226 leukemia was greater than 25 µM throughout. Further, the TGI in the assay with MOLT-4 leukemia, in the assay with A549 NSCLC, in the assay with TK-10 renal and with HCT-15 colon was greater than 25 µM each time.

Regarding `O=P1(C(O)/C=C/c2ccccc2)N(Cc2ccccc2)[C@@H]2CCCC[C@H]2N1Cc1ccccc1` (some centres undefined), the TGI in the assay with SK-MEL-5 melanoma was found to be 16.4 µM; in the assay with M14 melanoma, 19.8 µM; with K-562 leukemia, 16.4 µM; in the assay on CAKI-1 renal, 65.5 µM; with NCI-H226 lung, 17.2 µM; in the assay on RPMI-8226 leukemia it was 4.59 µM. Besides, the TGI in the assay on MOLT-4 leukemia came to 9.77 µM; in the assay on A549 NSCLC, 43 µM; with TK-10 renal, 28.5 µM; in the assay on HCT-15 colon it was 43.8 µM.

`O=C1/C(=C/c2ccc(Cl)cc2)CCCc2ccc(F)cc21`: the GI50 was 17.4 µM with SK-MEL-5 melanoma; 11.6 µM in the assay with M14 melanoma; 11.1 µM in the assay on K-562 leukemia; 22.5 µM with CAKI-1 renal; 16.8 µM with NCI-H226 lung; 4.36 µM in the assay with RPMI-8226 leukemia. For the same molecule, the GI50 was 12.1 µM in the assay with MOLT-4 leukemia, 26.4 µM in the assay with A549 NSCLC, 15.7 µM with TK-10 renal and 22.1 µM in the assay on HCT-15 colon. The TGI was 31.3 µM in the assay with SK-MEL-5 melanoma; 39.2 µM in the assay on M14 melanoma; greater than 100 µM in the assay on K-562 leukemia; 64.5 µM with CAKI-1 renal; 41.8 µM in the assay with NCI-H226 lung; 28.7 µM in the assay on RPMI-8226 leukemia. The TGI with MOLT-4 leukemia was greater than 100 µM; with A549 NSCLC it was greater than 100 µM; in the assay with TK-10 renal, 43.5 µM; in the assay with HCT-15 colon it was greater than 100 µM.

As to `CCCCN1C(=O)CC2[C@@H]3CCc4cc(OC)ccc4C3CC[C@]2(C)C1=O` (some centres undefined), the TGI with SK-MEL-5 melanoma, with M14 melanoma, in the assay on K-562 leukemia, in the assay on CAKI-1 renal, in the assay on NCI-H226 lung and in the assay on RPMI-8226 leukemia was greater than 10 µM throughout. In addition, the TGI in the assay on MOLT-4 leukemia, in the assay on A549 NSCLC, in the assay with TK-10 renal and in the assay with HCT-15 colon was greater than 10 µM in each case.

For `Cc1cc(OCc2nnc3sc(NC(=O)c4ccccc4)nn23)ccc1Cl`, the TGI was greater than 100 µM in the assay on SK-MEL-5 melanoma; greater than 100 µM in the assay on M14 melanoma; greater than 100 µM in the assay with K-562 leukemia; 36 µM with CAKI-1 renal; greater than 100 µM in the assay on NCI-H226 lung; 69.2 µM in the assay with RPMI-8226 leukemia. Besides, the TGI with MOLT-4 leukemia, in the assay on A549 NSCLC, in the assay with TK-10 renal and in the assay on HCT-15 colon was greater than 100 µM each time.

In the case of `NCCCCNCCCNC(=O)CNC(=O)CC(O)C(N)CCCC(NC(=O)C(CN)NC(=O)C(O)CNC(=O)CC(N)c1ccc(O)cc1)C(=O)O` (centres undefined), the TGI in the assay on SK-MEL-5 melanoma, in the assay with M14 melanoma, in the assay on K-562 leukemia, in the assay on CAKI-1 renal, with NCI-H226 lung and in the assay with RPMI-8226 leukemia was greater than 10 µM in each case. Also, the TGI with MOLT-4 leukemia, with A549 NSCLC, with TK-10 renal and in the assay on HCT-15 colon was greater than 10 µM each time.

For `COc1ccc(OC)c(NC(=O)C(=O)C(C(=O)c2ccccc2F)C2OC(=O)c3ccccc32)c1` (centres undefined), the TGI in the assay on SK-MEL-5 melanoma is greater than 100 µM; in the assay with M14 melanoma it was greater than 100 µM; in the assay with K-562 leukemia it was greater than 100 µM; in the assay on CAKI-1 renal, greater than 100 µM; in the assay with NCI-H226 lung it was 54.5 µM; with RPMI-8226 leukemia, greater than 100 µM. For the same molecule, the TGI in the assay with MOLT-4 leukemia, in the assay on A549 NSCLC, with TK-10 renal and in the assay on HCT-15 colon was greater than 100 µM each time.

With `COc1ccc(OC/C(N=Cc2ccncc2)=N/NC(=O)c2ccncc2)cc1`, the TGI with M14 melanoma, in the assay on K-562 leukemia, with CAKI-1 renal, in the assay on NCI-H226 lung, with RPMI-8226 leukemia and with MOLT-4 leukemia was greater than 100 µM each time. The TGI with A549 NSCLC, in the assay on TK-10 renal and in the assay on HCT-15 colon was greater than 100 µM throughout.

`NC(N)=NS(=O)(=O)c1ccc(NC(=O)c2cccc3c(NNc4ccc(S(N)(=O)=O)cc4)c4ccccc4nc23)cc1`: the TGI with SK-MEL-5 melanoma was greater than 100 µM; with M14 melanoma it was greater than 100 µM; with K-562 leukemia, 55 µM; in the assay on CAKI-1 renal, greater than 100 µM; with NCI-H226 lung, greater than 100 µM; in the assay on RPMI-8226 leukemia it was greater than 100 µM. The TGI with MOLT-4 leukemia is 74.1 µM; in the assay on A549 NSCLC, greater than 100 µM; with TK-10 renal, greater than 100 µM; in the assay with HCT-15 colon it was greater than 100 µM.

Regarding `CCOc1ccc(NCC2CC/C(=C\C=C\c3ccccc3)C2=O)cc1` (centres undefined), the TGI is 30.7 µM in the assay on SK-MEL-5 melanoma; 29.6 µM with M14 melanoma; greater than 100 µM in the assay on K-562 leukemia; greater than 40.8 µM in the assay with CAKI-1 renal; greater than 100 µM in the assay with NCI-H226 lung; greater than 100 µM in the assay on RPMI-8226 leukemia. Besides, the TGI with MOLT-4 leukemia is greater than 42.9 µM; in the assay on A549 NSCLC, greater than 100 µM; in the assay with TK-10 renal it was greater than 50.7 µM; in the assay with HCT-15 colon it was 18.9 µM.

`Cc1nc(SCC(N)=O)c2sc(=S)n(-c3ccccc3)c2n1`: the TGI in the assay on SK-MEL-5 melanoma, in the assay with M14 melanoma, in the assay on K-562 leukemia, in the assay on CAKI-1 renal, in the assay on NCI-H226 lung and in the assay with RPMI-8226 leukemia was greater than 10 µM each time. In addition, the TGI in the assay with MOLT-4 leukemia, in the assay on A549 NSCLC, in the assay on TK-10 renal and with HCT-15 colon was greater than 10 µM each time.

For `COc1cc2c3c(cc(Cl)nc3c1OC)C(=O)C(=O)N2`, the TGI with SK-MEL-5 melanoma is 32.4 µM; in the assay with M14 melanoma, 29.3 µM; with K-562 leukemia it was greater than 100 µM; in the assay on CAKI-1 renal, 28.6 µM; in the assay on NCI-H226 lung it was 41.5 µM; in the assay on RPMI-8226 leukemia, greater than 100 µM. Also, the TGI is greater than 31.2 µM in the assay on MOLT-4 leukemia, 38.6 µM in the assay with A549 NSCLC, 33.4 µM in the assay on TK-10 renal and 40.8 µM in the assay on HCT-15 colon.
